{"source": "patent US11998513B2", "about": "“Two-part nitric oxide generating topical compositions” (THE REGENTS OF THE UNIVERSITY OF MICHIGAN, priority 2018, dated 2024)", "assay_type_in_all_cases": "physicochemical", "key": {"[1]": {"assay": "Storage stability of SNAP in VASELINE® (UV-Vis % Recovery)", "conditions": "room temperature", "method": "The stability of 5 wt % and 10 wt % SNAP in petroleum jelly was tested. The petroleum jelly used was VASELINE®.\nMixtures of 5 wt % SNAP powder or 10 wt % SNAP powder in VASELINE® were mixed until homogeneity was achieved. Each homogeneous mixture was spread out on a weigh boat and dried under vacuum and desiccant for 24 hours. Afterwards, individual samples were weighed out into individual amber glass vials. Each sample's mass was recorded to obtain the theoretical amount of SNAP in each sample. Septum caps were used to allow purging of each sample with nitrogen gas for storage. All caps were then wrapped in parafilm, and then each vial was wrapped in aluminum foil to ensure that the samples are not exposed to light. All samples were stored in the dark at room temperature (˜25° C. in this example).\nTo quantify the amount of SNAP in each VASELINE® sample, UV-Vis was used. After recording the absorption of a sample, Beer's law (A=εbc, where A=absorption, ε=922 M^−1 cm^−1, b=1 cm, and c=concentration) was used to calculate the concentration of SNAP. These measurements were made at different times over several months.\nWhen a stored SNAP/VASELINE® sample was going to be analyzed, it was opened and 40 mg of the sample was retrieved. […] The SNAP solution was diluted 1:10 twice, and used to obtain UV-Vis absorbance values between 0.2 and 2 AU (absorbance units) at […]. […]"}, "[2]": {"assay": "NO release from 1 mM GSNO bulk solution after addition of metal ions (chemiluminescence analyzer)", "conditions": "100 μL of 1 mM salt into 2 mL of 1 mM GSNO, 10 mM Tris-HCl pH 7.4, dark, 24° C.", "method": "Another experiment was performed to determine whether zinc ions can increase NO proliferation from GSNO in the dark at 24° C. NO release was measured using a nitric oxide (chemiluminescence) analyzer. Throughout the analysis, each solution was bubbled with N2 gas at a rate of 50 mL/min. Any generated NO was carried into the analyzer by a N2 sweep gas. All of the solutions were made with 10 mM Tris-HCl buffer (pH 7.4). A bulk solution was prepared including 1 mM GSNO in the buffer. 2 mL of this bulk solution were added to a sample cell and the analyzer was allowed to equilibrate for 1 minute. At t=1 minute, 100 μL of 1 mM zinc chloride (ZnCl2) was added to the bulk solution. […] For the control, 100 μL of the buffer (10 mM Tris-HCl, pH 7.4) was added into the bulk solution at t=1 minute. The same insignificant burst was observed. For each scenario, at t=10.5 minutes, 100 μL of 1 mM CuCl2 was added to the bulk as a positive control."}, "[3]": {"assay": "Storage stability of GSNO in VASELINE® (UV-Vis % Recovery)", "conditions": "room temperature (18° C. to about 25° C.)", "method": "The stability of 10 wt % GSNO in petroleum jelly was tested. The petroleum jelly used was VASELINE®.\nA mixture 10 wt % GSNO in VASELINE® was mixed until homogeneity was achieved. The homogeneous mixture was spread out on a weigh boat and dried under vacuum and desiccant for 24 hours. Afterwards, individual samples were weighed out into individual amber glass vials. Each sample's mass, ranging from 15-40 mg per sample, was recorded to obtain the theoretical amount of GSNO in each sample. Septum caps were used to allow purging of each sample with nitrogen gas for storage. Each sample was purged under nitrogen gas for 5 hours. […]\nTo quantify the amount of GSNO in each VASELINE® sample, ultraviolet-visible spectroscopy (UV-Vis) was used. […]\nWhen a stored GSNO/VASELINE® sample was going to be analyzed, it was opened, subjected to 5 mL of xylene, vortexed for 30 seconds, and stirred for 10 minutes. […] An aliquot of the aqueous layer was taken and the absorbance spectrum was captured from 200-600 nm using UV-Vis to quantitate the level of GSNO present in the GSNO/VASELINE® sample. […]\nUV-Vis spectroscopy was used to determine the stability of GSNO in VASELINE®. […] After sample prep, the aliquot of the aqueous layer was taken in an appropriate volume so that the absorbance measured would be <1 at 334 nm. The sample was further diluted if necessary to achieve an absorbance of <1. […]"}}}
{"smiles": "CC(=O)N[C@@H](C(=O)O)C(C)(C)SN=O", "note": "(racemic) [SNAP, S-nitroso-n-acetylpenicillamine]", "values": [{"measurement": "period for which petroleum jelly is a stable carrier", "setting": "[1]; higher amounts of SNAP (10 wt % SNAP)", "value": "at least 2 months"}, {"measurement": "period for which petroleum jelly is a stable carrier", "setting": "[1]; lower amounts of SNAP (5 wt % SNAP)", "value": "at least 6 months"}]}
{"smiles": "[Cl][Cu][Cl]", "note": "[CuCl2]", "values": [{"measurement": "NO release on addition to GSNO bulk solution (in words)", "setting": "[2]", "value": "large burst in NO release"}]}
{"smiles": "N[C@@H](CCC(=O)N[C@@H](CSN=O)C(=O)NCC(=O)O)C(=O)O", "note": "[GSNO, S-nitrosoglutathione]", "values": [{"measurement": "period for which petroleum jelly is a stable carrier", "setting": "[3]", "value": "at least 300 days"}]}
{"smiles": "[Cl-].[Cl-].[Zn+2]", "note": "[ZnCl2, zinc chloride]", "values": [{"measurement": "NO release on addition to GSNO bulk solution (in words)", "setting": "[2]", "value": "small, insignificant burst of NO"}]}
